Experimental data: patent publication US4963570A, “1-(acetylaminophenyl)-2-aminopropanone derivatives and pharmaceutical compositions thereof” (Laboratoire L. Lafon, priority 1983, dated 1990)
Entries after “also recorded” stand apart in the source; their conditions may differ. Counter-ions that a name gives are not always drawn.

Key:
mice [1] = assay: overall behavior and reactivities in mice; type: in vivo, mouse; conditions: i.p.
Experimental: (§1) Groups of three animals are observed before and then 0.25 hour, 0.50 hour, 1 hour, 2 hours, 3 hours and 24 hours after the administration of CRL 41 224.

rats [2] = assay: overall behavior and reactivities in rats; type: in vivo, rat; conditions: i.p.
Experimental: as §1

mice [3] = assay: interaction with apomorphine in mice; type: in vivo, mouse; conditions: i.p.; dose not stated
Experimental: Groups of 6 mice receive CRL 41 224 0.5 hour before the subcutaneous injection of 1 or 16 mg/kg of apomorphine.

rats [4] = assay: interaction with apomorphine in rats; type: in vivo, rat; conditions: i.p., dose not stated
Experimental: CRL 41 224 is administered to groups of 6 rats 0.5 hour before the subcutaneous injection of 0.5 mg/kg of apomorphine.

rats [5] = assay: interaction with amphetamine; type: in vivo, rat; conditions: rats, i.p.; dose not stated
Experimental: Amphetamine (2 mg/kg) is injected intraperitoneally into groups of 6 rats 30 minutes after the administration of CRL 41 224.

mice [6] = assay: interaction with reserpine; type: in vivo, mouse; conditions: i.p.; dose not stated
Experimental: Four hours after the intraperitoneal injection of 2.5 mg/kg of reserpine, groups of 6 mice receive CRL 41 224.

mice [7] = assay: interaction with oxotremorine; type: in vivo, mouse; conditions: i.p.
Experimental: CRL 41 224 is administered to groups of 6 mice 0.5 hour before the intraperitoneal injection of 0.5 mg/kg of oxotremorine.

mice [8] = assay: four plate test, traction and electric shock; type: in vivo, mouse; conditions: i.p.
Experimental: The test is performed on groups of 10 mice 30 minutes after the administration of CRL 41 224.

mice [9] = assay: action on the spontaneous motility (actimeter); type: in vivo, mouse
Experimental: 0.5 hour after they have received CRL 41 224, the mice (6 per dose, 12 control animals) are placed in an actimeter, where their motility is recorded for 30 minutes.

mice [10] = assay: motility reduced by habituation to the enclosure; type: in vivo, mouse; conditions: i.p., dose not stated
Experimental: After they have stayed in the actimeters for 18 hours, the mice (6 per dose, 12 control animals) receive CRL 41 224. They are immediately returned to their respective enclosures and, half an hour later, their motility is recorded for 30 minutes.

mice [11] = assay: motility reduced by hypoxic aggression; type: in vivo, mouse; conditions: i.p., dose not stated
Experimental: Half an hour after they have received CRL 41 224, the mice (10 per dose, 20 control animals) are subjected to acute hypobaric anoxia [pressure reduction of 600 mm Hg (i.e. about 8×10^4 Pa) in 90 seconds; release of vacuum in 45 seconds] and are then placed in an actimeter, where their motility is recorded for 10 minutes.

mice [12] = assay: interaction with barbital; type: in vivo, mouse
Experimental: Half an hour after the administration of CRL 41 224, groups of 10 mice receive an intraperitoneal injection of barbital (220 mg/kg).

mice [13] = assay: action on the behavioral despair; type: in vivo, mouse; conditions: i.p.
Text: Half an hour after they have received CRL 41 224, groups of 6 mice are placed in a beaker filled with water to a height of 6 cm. The total period of immobility between the 2nd and 6th minutes following immersion is noted.

man = assay: clinical trials; type: in vivo, human; conditions: tablets or gelatine capsules 2 mg, 2 to 3 per day
CNS = assay: overall neuropsychopharmacological (CNS) profile; type: in vivo, mouse; rat; conditions: i.p.
Experimental: The neuropsychopharmacological study of CRL 41 219 was carried out as indicated above for CRL 41 224.
The neuropsychopharmacological study of CRL 41 220 was carried out in accordance with the procedures given above for CRL 41 224.

[14] = tested on: peripheral α-adrenergic stimulation; assay: signs of peripheral adrenergic stimulation; type: in vivo, mouse; rat; conditions: i.p.; dose not stated
Experimental: as §1

mice [15] = assay: toxicity to grouped mice compared with isolated mice; type: in vivo, mouse
rats [16] = assay: action on stereotypies in rats (α-methyltyrosine, haloperidol, reserpine); conditions: i.p.
male mice = assay: acute toxicity, intraperitoneal (lethal doses); type: in vivo, mouse; conditions: i.p.
Experimental: By intraperitoneal administration to male mice, the LD-30 (lethal dose for 30% of the animals tested) is of the order of 128 mg/kg and the LD-50 is of the order of about 200 mg/kg.

mice [17] = assay: action on the intergroup aggression; type: in vivo, mouse; conditions: i.p., high doses
Experimental: After they have stayed for 3 weeks in the 2 halves of a cage divided by an opaque partition, groups of 3 mice receive CRL 41 224. Half an hour later, the two groups from the same cage are brought together by removal of the partition, and the number of fights which occur in 10 minutes is noted. Half the test is performed on ordinary mice (NMRI, C.E.R. January) and half on NMRI (Iffa Credo) mice.

mice [18] = assay: asphyxiant anoxia (gallamine triiodoethylate); type: in vivo, mouse; conditions: i.p., high dose
Experimental: Groups of 10 mice receive CRL 41 224 half an hour before the intraperitoneal administration of 32 mg/kg of gallamine triiodoethylate (reference curarizing agent).

[19] = pH of the aqueous solution as a function of concentration; type: physicochemical
Experimental: The neuropsychopharmacological study of CRL 41 242 was carried out according to the procedures described above for CRL 41 224, except that the pH of the aqueous solution of CRL 41 242 to be injected intraperitoneally varies as a function of the concentration in the manner indicated in Table III below.

immunological properties = assay: immunological properties, overall; type: in vivo; conditions: dose not stated; dihydrochloride
Text: The present 1-(acetylaminophenyl)-2-aminopropanone derivatives are useful in therapy. They all act on the CNS, more precisely as antidepressants. They have a stimulant or excitant component in their neuropsychopharmacological profile.

## CC(=O)Nc1ccc(C(=O)C(C)NC(C)(C)C)cc1 (stereo not drawn) [CRL 41 177]
Mice [1]; mice, dose not stated
  excitation in mice: excitation with hyperreactivity in mice
Rats [2]; dose not stated
  stereotype movements in rats: stereotype movements in rats
Mice [3]
  hypothermia induced by apomorphine: antagonism of the hypothermia induced by apomorphine
Rats [4]
  stereotypies induced by apomorphine: potentiation of the stereotypies induced by apomorphine
Rats [5]
  stereotypies induced by amphetamine: potentiation of the stereotypies induced by apomorphine or amphetamine
Mice [6]
  hypothermia induced by reserpine: antagonism of the hypothermia induced by apomorphine, oxotremorine or reserpine
  ptosis induced by reserpine: antagonism of the ptosis induced by reserpine
Mice [7]; dose not stated
  hypothermia induced by oxotremorine: antagonism of the hypothermia induced by apomorphine, oxotremorine
  trembling caused by oxotremorine: antagonism of the trembling caused by oxotremorine
Mice [8]; dose not stated
  convulsant effects of electric shock: potentiate the convulsant effects of electric shock
Mice [9]; male mice, gastric
  effect on spontaneous motility, gastric versus intraperitoneal: greater than on intraperitoneal administration
Mice [9]; mice, i.p., dose not stated
  spontaneous motility / motor activity: an increase in the spontaneous motility in mice
Mice [10]
  motor activity after habituation to the enclosure: a resumption in the motor activity of mice accustomed to their enclosure
Mice [11]
  motor recovery after hypoxic aggression: an improvement in the motor recovery in mice after acute hypoxia
Mice [12]; i.p., dose not stated
  sleep induced by barbital: antagonism of the sleep induced by barbital
Mice [12]; male mice, gastric
  interaction with barbital, gastric versus intraperitoneal: greater than on intraperitoneal administration
Mice [13]; dose not stated
  period of immobility or "despair": a reduction in the immobility
man
  clinical result: antidepressant: excellent antidepressant drug
CNS; mice and rats, dose not stated
  overall action on the CNS: stimulant effects; also recorded: antidepressant effects
[14]
  exophthalmos: absent
  mydriasis: mydriasis
  peripheral adrenergic stimulation, overall: effects which may reflect peripheral adrenergic stimulation
  salivation: absent
Mice [15]
  toxicity to grouped mice compared with isolated mice: do not increase the toxicity to grouped mice
Rats [16]
  suppression of induced stereotype movements by prior injection of alpha-methyltyrosine: not suppressed

## CC(=O)Nc1ccc(C(=O)C(C)N2CCN(C)CC2)cc1 (stereo not drawn) [CRL 41 242, 1-(4-acetylaminophenyl)-2-(4-methylpiperazino)-propanone dihydrochloride]
Male mice
  LD-0 (maximum non-lethal dose): greater than 256 mg/kg
  LD-60: about 500 mg/kg
Mice [1]; high doses
  reactivities: decrease in the reactivities
Mice [1]; strong/high doses
  body temperature (hypothermia): hypothermia in mice
Mice [1]; mice, high doses
  sedation: sedation in mice
Rats [2]; high doses
  sedation: sedation in mice and rats
Mice [7]; strong/high doses
  hypothermia induced by oxotremorine: very moderate antagonism of the hypothermia induced by oxotremorine
Mice [8]; mice, high doses
  number of punished passes in the four plate test: a decrease in the spontaneous motility and the number of punished passes
Mice [9]; mice, i.p., high doses
  spontaneous motility: a decrease in the spontaneous motility
Mice [17]
  intergroup aggression: a reduction in the intergroup aggression
Mice [18]
  time taken for asphyxiant convulsions (and death) to occur: an increase in the time taken for convulsions and death to occur following asphyxiant anoxia
Mice [12]; i.p., strong/high doses
  duration of the sleep induced by barbital: an increase in the duration of the sleep induced by barbital
Mice [13]; strong/high doses
  period of immobility of mice forcibly immersed: a slight reduction in the period of immobility
[19]; 0.2 g/liter
  pH of the aqueous solution: 5.0
[19]; 0.4 g/liter
  pH of the aqueous solution: 4.5
[19]; 0.8 g/liter
  pH of the aqueous solution: 4.0
[19]; 2 g/liter
  pH of the aqueous solution: 3.5
[19]; 13 g/liter
  pH of the aqueous solution: 3.0
[19]; 50 g/liter
  pH of the aqueous solution: 2.5
[19]; ≤0.05 g/liter
  pH of the aqueous solution: 5.5
CNS; strong/high doses, dihydrochloride
  overall action on the CNS: sedative effects; also recorded: antidepressant effects
CNS; weak doses
  effects of the stimulant type: very discreet effects of the stimulant type
Immunological properties
  immunological properties, overall: beneficial immunomodulating effects; also recorded: particularly valuable as an immunostimulant substance
